Data taken from PubChem BioAssay AID2060908 (Molecular Pharmacology Branch, DTP, NCI, 2025).

System: 186277-243-T-J2-PDC complex spheroids, viability
Assay: Anticancer human tumor 186277-243-T-J2-PDC patient-derived colon adenocarcinoma cell line growth inhibition [RAS]
Details: for IC50: curve of first compound; for viability, T/C: stronger effect = lower value
Method in brief: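 Agents were tested in combination matrices in half-log decrements from a top concentration at or near clinical Cmax (10 microM if undetermined). Targets were multi-cell spheroids of tumour lines plus HUVEC and MSC stromal cells.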
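Also: spheroids exposed to compounds for 7 days before viability read.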

`CC1(C)CCC(Nc2ncc(C(F)(F)F)c(-c3c[nH]c4c(P(C)(C)=O)c(C#N)ccc34)n2)CN1` (stereo unspecified) + C#Cc1c(F)ccc2cc(O)cc(-c3ncc4c(N5CC6CCC(C5)N6)nc(OCC56CCCN5CC(F)C6)nc4c3F)c12 was tested, and the IC50 (second compound 0.0316 µM) was 69.8 nM, the IC50 (second compound 0.1 µM) was 12.1 nM and the IC50 (second compound 0.316 µM) was under 0.949 nM. For the same compound, the IC50 (second compound 1 µM) was under 0.949 nM, the IC50 (second compound 3.16 µM) was under 0.949 nM and the IC50 (second compound 10 µM) was under 0.949 nM. For the same compound, the viability, T/C (second compound 0.0316 µM, first compound 0.000949 µM) was 91.9%, the viability, T/C (second compound 0.0316 µM, first compound 0.003 µM) was 80.4% and the viability, T/C (second compound 0.0316 µM, first compound 0.00949 µM) was 60.4%. The viability, T/C (second compound 0.0316 µM, first compound 0.03 µM) was 55.8%, the viability, T/C (second compound 0.0316 µM, first compound 0.0949 µM) was 51.8% and the viability, T/C (second compound 0.0316 µM, first compound 0.3 µM) was 40.9%. The viability, T/C (second compound 0.1 µM, first compound 0.000949 µM) was 50%, the viability, T/C (second compound 0.1 µM, first compound 0.003 µM) was 67.4% and the viability, T/C (second compound 0.1 µM, first compound 0.00949 µM) was 55.4%. For the same compound, the viability, T/C (second compound 0.1 µM, first compound 0.03 µM) was 29%, the viability, T/C (second compound 0.1 µM, first compound 0.0949 µM) was 34.5% and the viability, T/C (second compound 0.1 µM, first compound 0.3 µM) was 26.1%. The viability, T/C (second compound 0.316 µM, first compound 0.000949 µM) was 27.9%, the viability, T/C (second compound 0.316 µM, first compound 0.003 µM) was 29.9% and the viability, T/C (second compound 0.316 µM, first compound 0.00949 µM) was 23%. For the same compound, the viability, T/C (second compound 0.316 µM, first compound 0.03 µM) was 15.9%, the viability, T/C (second compound 0.316 µM, first compound 0.0949 µM) was 15.2% and the viability, T/C (second compound 0.316 µM, first compound 0.3 µM) was 17.2%. The viability, T/C (second compound 1 µM, first compound 0.000949 µM) was 15.6%, the viability, T/C (second compound 1 µM, first compound 0.003 µM) was 16.5% and the viability, T/C (second compound 1 µM, first compound 0.00949 µM) was 13%. For the same compound, the viability, T/C (second compound 1 µM, first compound 0.03 µM) was 13.9%, the viability, T/C (second compound 1 µM, first compound 0.0949 µM) was 12.4% and the viability, T/C (second compound 1 µM, first compound 0.3 µM) was 11.5%. It also gave a viability, T/C (second compound 3.16 µM, first compound 0.000949 µM) of 12.4%, a viability, T/C (second compound 3.16 µM, first compound 0.003 µM) of 11.7% and a viability, T/C (second compound 3.16 µM, first compound 0.00949 µM) of 11%. For the same compound, the viability, T/C (second compound 3.16 µM, first compound 0.03 µM) was 12.5%, the viability, T/C (second compound 3.16 µM, first compound 0.0949 µM) was 11.2% and the viability, T/C (second compound 3.16 µM, first compound 0.3 µM) was 8.62%. For the same compound, the viability, T/C (second compound 10 µM, first compound 0.000949 µM) was 8.95%, the viability, T/C (second compound 10 µM, first compound 0.003 µM) was 9.05% and the viability, T/C (second compound 10 µM, first compound 0.00949 µM) was 7.62%. It also gave a viability, T/C (second compound 10 µM, first compound 0.03 µM) of 6.45%, a viability, T/C (second compound 10 µM, first compound 0.0949 µM) of 9.73% and a viability, T/C (second compound 10 µM, first compound 0.3 µM) of 7.54%.

`CC1(C)CCC(Nc2ncc(C(F)(F)F)c(-c3c[nH]c4c(P(C)(C)=O)c(C#N)ccc34)n2)CN1` (stereo unspecified) + CCn1c(-c2cc(N3CCN(C)CC3)cnc2C(C)OC)c2c3cc(ccc31)-c1csc(n1)CC(NC(=O)C1CC1C)C(=O)N1CCCC(N1)C(=O)OCC(C)(C)C2 showed an IC50 (second compound 0.000949 µM) of 95.3 nM, an IC50 (second compound 0.003 µM) of 44.3 nM and an IC50 (second compound 0.00949 µM) of under 0.949 nM. For the same compound, the IC50 (second compound 0.03 µM) was under 0.949 nM, the IC50 (second compound 0.0949 µM) was under 0.949 nM and the IC50 (second compound 0.3 µM) was under 0.949 nM. It also gave a viability, T/C (second compound 0.000949 µM, first compound 0.000949 µM) of 103%, a viability, T/C (second compound 0.000949 µM, first compound 0.003 µM) of 104% and a viability, T/C (second compound 0.000949 µM, first compound 0.00949 µM) of 88%. The viability, T/C (second compound 0.000949 µM, first compound 0.03 µM) was 68.5%, the viability, T/C (second compound 0.000949 µM, first compound 0.0949 µM) was 49.8% and the viability, T/C (second compound 0.000949 µM, first compound 0.3 µM) was 43.3%. The viability, T/C (second compound 0.003 µM, first compound 0.000949 µM) was 96.8%, the viability, T/C (second compound 0.003 µM, first compound 0.003 µM) was 80.2% and the viability, T/C (second compound 0.003 µM, first compound 0.00949 µM) was 82.1%. The viability, T/C (second compound 0.003 µM, first compound 0.03 µM) was 55.1%, the viability, T/C (second compound 0.003 µM, first compound 0.0949 µM) was 37.4% and the viability, T/C (second compound 0.003 µM, first compound 0.3 µM) was 31.4%. For the same compound, the viability, T/C (second compound 0.00949 µM, first compound 0.000949 µM) was 48.1%, the viability, T/C (second compound 0.00949 µM, first compound 0.003 µM) was 42.9% and the viability, T/C (second compound 0.00949 µM, first compound 0.00949 µM) was 31.9%. It also gave a viability, T/C (second compound 0.00949 µM, first compound 0.03 µM) of 22.6%, a viability, T/C (second compound 0.00949 µM, first compound 0.0949 µM) of 18.2% and a viability, T/C (second compound 0.00949 µM, first compound 0.3 µM) of 18.2%. It also gave a viability, T/C (second compound 0.03 µM, first compound 0.000949 µM) of 14.1%, a viability, T/C (second compound 0.03 µM, first compound 0.003 µM) of 14% and a viability, T/C (second compound 0.03 µM, first compound 0.00949 µM) of 10.6%. The viability, T/C (second compound 0.03 µM, first compound 0.03 µM) was 9.74%, the viability, T/C (second compound 0.03 µM, first compound 0.0949 µM) was 10.6% and the viability, T/C (second compound 0.03 µM, first compound 0.3 µM) was 8.92%. For the same compound, the viability, T/C (second compound 0.0949 µM, first compound 0.000949 µM) was 7.13%, the viability, T/C (second compound 0.0949 µM, first compound 0.003 µM) was 6.88% and the viability, T/C (second compound 0.0949 µM, first compound 0.00949 µM) was 5.95%. The viability, T/C (second compound 0.0949 µM, first compound 0.03 µM) was 5.82%, the viability, T/C (second compound 0.0949 µM, first compound 0.0949 µM) was 6.47% and the viability, T/C (second compound 0.0949 µM, first compound 0.3 µM) was 5.47%. The viability, T/C (second compound 0.3 µM, first compound 0.000949 µM) was 5.71%, the viability, T/C (second compound 0.3 µM, first compound 0.003 µM) was 5.48% and the viability, T/C (second compound 0.3 µM, first compound 0.00949 µM) was 4.65%. It also gave a viability, T/C (second compound 0.3 µM, first compound 0.03 µM) of 4.88%, a viability, T/C (second compound 0.3 µM, first compound 0.0949 µM) of 4.85% and a viability, T/C (second compound 0.3 µM, first compound 0.3 µM) of 4.54%.

For `O=C(c1ccc(F)c(F)c1Nc1ccc(I)cc1F)N1CC(O)([C@@H]2CCCCN2)C1` + C#Cc1c(F)ccc2cc(O)cc(-c3ncc4c(N5CC6CCC(C5)N6)nc(OCC56CCCN5CC(F)C6)nc4c3F)c12, the IC50 (second compound 0.0316 µM) was 20.9 nM, the IC50 (second compound 0.1 µM) was 3.25 nM and the IC50 (second compound 0.316 µM) was under 3.16 nM. The IC50 (second compound 1 µM) was under 3.16 nM, the IC50 (second compound 3.16 µM) was under 3.16 nM and the IC50 (second compound 10 µM) was under 3.16 nM. The viability, T/C (second compound 0.0316 µM, first compound 0.00316 µM) was 72.4%, the viability, T/C (second compound 0.0316 µM, first compound 0.01 µM) was 56.3% and the viability, T/C (second compound 0.0316 µM, first compound 0.0316 µM) was 47.1%. For the same compound, the viability, T/C (second compound 0.0316 µM, first compound 0.1 µM) was 15.4%, the viability, T/C (second compound 0.0316 µM, first compound 0.316 µM) was 5.69% and the viability, T/C (second compound 0.0316 µM, first compound 1 µM) was 6.25%. The viability, T/C (second compound 0.1 µM, first compound 0.00316 µM) was 50%, the viability, T/C (second compound 0.1 µM, first compound 0.01 µM) was 40.8% and the viability, T/C (second compound 0.1 µM, first compound 0.0316 µM) was 20%. It also gave a viability, T/C (second compound 0.1 µM, first compound 0.1 µM) of 9.26%, a viability, T/C (second compound 0.1 µM, first compound 0.316 µM) of 6.29% and a viability, T/C (second compound 0.1 µM, first compound 1 µM) of 3.94%. The viability, T/C (second compound 0.316 µM, first compound 0.00316 µM) was 18.9%, the viability, T/C (second compound 0.316 µM, first compound 0.01 µM) was 17.5% and the viability, T/C (second compound 0.316 µM, first compound 0.0316 µM) was 10.5%. The viability, T/C (second compound 0.316 µM, first compound 0.1 µM) was 9.19%, the viability, T/C (second compound 0.316 µM, first compound 0.316 µM) was 4.54% and the viability, T/C (second compound 0.316 µM, first compound 1 µM) was 3.72%. For the same compound, the viability, T/C (second compound 1 µM, first compound 0.00316 µM) was 12.6%, the viability, T/C (second compound 1 µM, first compound 0.01 µM) was 9.81% and the viability, T/C (second compound 1 µM, first compound 0.0316 µM) was 8.46%. The viability, T/C (second compound 1 µM, first compound 0.1 µM) was 6.3%, the viability, T/C (second compound 1 µM, first compound 0.316 µM) was 4.16% and the viability, T/C (second compound 1 µM, first compound 1 µM) was 3.53%. The viability, T/C (second compound 3.16 µM, first compound 0.00316 µM) was 9%, the viability, T/C (second compound 3.16 µM, first compound 0.01 µM) was 9.32% and the viability, T/C (second compound 3.16 µM, first compound 0.0316 µM) was 7.86%. It also gave a viability, T/C (second compound 3.16 µM, first compound 0.1 µM) of 5.98%, a viability, T/C (second compound 3.16 µM, first compound 0.316 µM) of 3.91% and a viability, T/C (second compound 3.16 µM, first compound 1 µM) of 3.32%. For the same compound, the viability, T/C (second compound 10 µM, first compound 0.00316 µM) was 6.85%, the viability, T/C (second compound 10 µM, first compound 0.01 µM) was 7.33% and the viability, T/C (second compound 10 µM, first compound 0.0316 µM) was 5.34%. For the same compound, the viability, T/C (second compound 10 µM, first compound 0.1 µM) was 3.85%, the viability, T/C (second compound 10 µM, first compound 0.316 µM) was 2.37% and the viability, T/C (second compound 10 µM, first compound 1 µM) was 1.61%.
